Columns and labels:
[1] = Cumulative distribution Q3% (HELOS Particle Size Analysis) of budesonide powder; assay type: physicochemical; conditions: FIG. 4
From the text: FIGS. 3 and 4 respectively show a diagram of the Cumulative Distribution Q3% (HELOS Particle Size Analysis) with respect to the particle size in μm, and a table corresponding to said diagram of the Cumulative Distribution with standard deviation, according to a possible embodiment of the budesonide that can be used in this invention. […] In this range of there is half the total weight, almost as in the remaining […]; Said budesonide is obtained and supplied by the manufacturer already in this form according to an average size distribution shown in the diagram of FIG. 3, and in tabular form in FIG. 4, which show the cumulative distribution Q3% with respect to the particle size in μm.

[2] = Average size distribution of micronized budesonide powder by laser diffractometer; assay type: physicochemical; conditions: FIG. 5
From the text: Preferably, said budesonide has an average size distribution shown in the diagram of FIG. 5, and in tabular form in Table A.1 below (in which the numerical values are expressed in μm).
In Table A.1, the parameters Dx(10), Dx(50) and Dx(90) respectively indicate that 10%, 50% and 90% by weight of the particles analysed have a dimensional distribution below the numerical values (expressed in μm) indicated in such Table.
For example, the average size distribution could be determined by means of a Spraytec laser diffractometer (Malvern Panalytics, UK), preferably using the instrumental operating parameters shown in Table A.2 below, where the parameters not specified in such table were maintained as per default specifications of the laser diffractometer.

[3] = cited from earlier work

SMILES: CCCC1O[C@@H]2C[C@H]3[C@@H]4CCC5=CC(=O)C=C[C@]5(C)[C@H]4[C@@H](O)C[C@]3(C)[C@]2(C(=O)CO)O1 (stereo partly drawn) [budesonide]
- Cumulative Distribution Q3% ([1]; x0/μm=2,50): 90,32%
- Cumulative Distribution Q3% ([1]; x0/μm=3.75): 99,01%
- Dx(10) ([2]; 10% by weight of particles below this size): 1.10 μm
- Dx(50) ([2]; 50% by weight of particles below this size): 2.02 μm
- Dx(90) ([2]; 90% by weight of particles below this size): 3.68 μm
- solubility in water [3]: not water-soluble

Source: patent publication US20220409633A1, “COMPOSITION COMPRISING BUDESONIDE FOR OPHTHALMIC USE” (NTC S.R.L., priority 2019, published 2022)
